# Values of other authors in patent US20230210793A1 (priority 2021, published 2023).
smiles,measurement,value
"O=NN(CCCl)C(=O)NCCCl [Carmustine, 1,3-bis(2-chloroethyl)-1-nitrosourea]",solubility in water,poorly soluble
